Converted amounts (≈) assume the structure as drawn.
What was measured:
[1] = Cytotoxicity assay in primary human hepatocytes (PHHs); format: cell-based; conditions: HBV-infected primary human hepatocytes, HBV-infected PHH, Cell Titer Glo, average of at least two independent experiments
Protocol: Example 107: Cytotoxicity Assay in Primary Human Hepatocytes (PHHs)
The HBV-infected primary human hepatocytes are seeded (20K cells/well in 80 uL of Media) in 384well collagen coated plates pre-spotted with compounds. After 5 days, 40 ul of cell supernatant is removed to quantify HBV DNA levels as described in Example 106. Then, 40 ul Cell Titer Glo Reagent (Promega Catalog Number: G7572) is added to the remaining cells and luminescence is measured on the EnVision microplate reader.

HBV = assay: Antiviral (HBV) assay in primary human hepatocytes (PHHs); format: cell-based; conditions: Hepatitis B virus, Hepatocyte, 120 h; HBV (GTD) infected PHH, 5 days, HBV DNA in supernatant; average of at least two independent experiments
Protocol: Example 106: Antiviral (HBV) Assay in Primary Human Hepatocytes (PHHs)
Cryopreserved PHH were thawed, recovered by centrifugation at 100 g in cryopreserved hepatocyte recovery medium (Thermo Fisher Scientific; CM7500), and plated on collagen matrix (Life Technologies; Catalog Number: R-011-K) coated T225 flasks (Corning CellBIND, Catalog Number: 3293) at a density of 25E6 live cells in 60 mls media. Cells were plated in William's E medium (Thermo Fisher Scientific; A1217601) supplemented with 3.6% hepatocyte thawing and plating supplement (Thermo Fisher Scientific, A15563), 5% fetal bovine serum (Thermo Fisher Scientific; 16000-036), 1 μM dexamethasone (Thermo Fisher Scientific, A15563), and 0.2% Torpedo antibiotic mix (Bioreclamation; Z990008). The plating medium was removed after 14 hours and the cells were subsequently cultured in maintenance medium: William's E medium supplemented with 4% hepatocyte maintenance supplement (Thermo Fisher Scientific; AI15564), 2% fetal bovine serum, 0.1μ M dexamethasone, 1.5% DMSO (Sigma-Aldrich, St. Louis, MO; D8418), and 0.2% Torpedo antibiotic mix. Approximately 24 hours after plating, PHH were infected with HepAD38-derived GTD virus at 500 viral genome equivalents per cell in PHH maintenance medium supplemented with 4% PEG 8000 (Promega, Madison, WI; V3011). Infections were allowed to proceed for 24 hours before removing the remaining extracellular virions by washing with maintenance medium three times. After allowing viral infection to take place for 3 days, the infected cells were harvested from the flasks by trypsinization (0.25X in PBS without Ca/Mg, 25 minutes) following a 4 minute 0.5X Versene (Life Technologies Catalog Number: 15040-066) treatment and two PBS washes. Trypsinized cells were inactivated in 10% FBS containing maintenance medium, centrifuged 6 minutes at 50 g, resuspended in hepatocyte maintenance medium, filtered through a 40 uM cell strainer, and adjusted to a density of 0.25E6 cells/ml. Infected cells were seeded on 384 well collagen coated plates (Greiner, Austria) at a density of 20,000 cells/well containing serially diluted compounds of the present disclosure or DMSO (0.5%) in a final volume of 80 μl. The assay plates were incubated for a period of 5 days and the antiviral activity of the test compounds were assayed by detecting the presence of HBV DNA in the culture supernatant using the QuantiGene™ 2.0 nucleic acid quantification kit (Affymetrix, Santa Clara, CA).

[2] = Kinetic solubility analysis; format: physicochemical; conditions: 1× PBS, 24.2 °C, aqueous buffer, kinetic from dmso stock; pH 7.4 PBS, 1% DMSO, 24-hour incubation at ambient temperature
In short: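 Compounds from 10 mM DMSO stocks were incubated in 0.1 N HCl or 1× PBS pH 7.4 (1.0% DMSO, 100 μM maximum theoretical) for 24 h at 24.2-27.5 °C, then vacuum filtered. Filtrates were quantified in μM by chemiluminescent nitrogen detection against a calibration curve, corrected for background nitrogen; values for adjacent ring-nitrogen compounds were raised ~25%.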

[3] = Cytotoxicity assay in MT-4 cells; format: cell-based; conditions: human, uninfected MT-4 cells, average of at least two independent experiments, read-out: MT4 CC50
Protocol: Compounds were tested in a high-throughput 384-well assay format for their ability to inhibit the replication of HIV-1 (IIIB) in MT-4 cells. Compounds were serially diluted (1:3) in DMSO on 384-well polypropylene plates and further diluted 200-fold into complete RPMI media (10% FBS, 1% P/S) using the Biotek Micro Flow and Labcyte ECHO acoustic dispenser. Each plate contained up to 8 test compounds, with negative (no drug) and positive (5 μM AZT) controls. MT-4 cells were pre-treated with 10 μL of either RPMI (mock-infected) or a fresh 1:250 dilution of HIV-1 IIIB concentrated virus stock. Infected and uninfected MT-4 cells were further diluted in complete RPMI media and added to each plate using a Micro Flow dispenser. After 5 days incubation in a humidified and temperature-controlled incubator (37° C.), Cell Titer Glo (Promega) was added to the assay plates and chemiluminescence read using an Envision plate-reader. EC50 values were defined as the compound concentration that causes a 50% decrease in luminescence signal and were calculated using a sigmoidal dose-response model to generate curve fits and are shown in Table 1.
Example 105: Cytotoxicity Assay in MT-4 Cells
Assays were performed as described in Example 104 except uninfected MT-4 cells were added to each well containing test compound. In addition, 10 μM puromycin was added to the last column of each assay plate to assess a base level of cytotoxicity.

SMILES | CC50 at 5 days [1] [µM] | EC50 (HBV) [µM] | solubility kinetic at 24 h [2] [µg/mL] | CC50 at 5 days [3] [µM]
CCCCCCOC(=O)C(C)(C)NP(=O)(CO[C@H](C)Cn1cnc2c(N)ncnc21)NC(C)(C)C(=O)OCCCCCC [Example 1, Dihexyl 2,2′-(((((1-(6-amino-9H-purin-9-yl)propan-2-yl)oxy)methyl)phosphoryl)bis(azanediyl))(R)-bis(2-methylpropanoate)] | > 0.1 | 0.00196 | 33 (≈ 52.7 µM) | 4.99
CCC(CC)COC(=O)C(C)(C)NP(=O)(CO[C@H](C)Cn1cnc2c(N)ncnc21)NC(C)(C)C(=O)OCC(CC)CC [Example 2, Bis(2-ethylbutyl) 2,2′-(((((1-(6-amino-9H-purin-9-yl)propan-2-yl)oxy)methyl)phosphoryl)bis(azanediyl))(R)-bis(2-methylpropanoate)] | > 1 | 0.00069 | 65 (≈ 104 µM) | 6.09
C[C@H](Cn1cnc2c(N)ncnc21)OCP(=O)(NC(C)(C)C(=O)OCCC1CCCCC1)NC(C)(C)C(=O)OCCC1CCCCC1 [Example 14, Bis(2-cyclohexylethyl) 2,2′-(((((1-(6-amino-9H-purin-9-yl)propan-2-yl)oxy)methyl)phosphoryl)bis(azanediyl))(R)-bis(2-methylpropanoate)] | > 0.1 | 0.00257 | 27 (≈ 39.8 µM) | 3.19
C[C@H](Cn1cnc2c(N)ncnc21)OCP(=O)(NC(C)(C)C(=O)O[C@H]1CC[C@H](C(F)(F)F)CC1)NC(C)(C)C(=O)O[C@H]1CC[C@H](C(F)(F)F)CC1 [Example 21, Bis(trans-4-(trifluoromethyl)cyclohexyl) 2,2′-((((((R)-1-(6-amino-9H-purin-9-yl)propan-2-yl)oxy)methyl)phosphoryl)bis(azanediyl))bis(2-methylpropanoate)] | > 0.1 | 0.00355 | 39 (≈ 51.5 µM) | 4.47
CCCCCCOC(=O)C(C)(C)NP(=O)(CO[C@H](C)Cn1cnc2c(NC(=O)OCc3oc(=O)oc3C)ncnc21)NC(C)(C)C(=O)OCCCCCC [Example 33, Dihexyl 2,2′-(((((1-(6-((((5-methyl-2-oxo-1,3-dioxol-4-yl)methoxy)carbonyl)amino)-9H-purin-9-yl)propan-2-yl)oxy)methyl)phosphoryl)bis(azanediyl))(R)-bis(2-methylpropanoate)] | > 0.1 | 0.00262 | 14 (≈ 17.9 µM) | 6.62
CCCCCCCCOC(=O)C(C)(C)NP(=O)(CO[C@H](C)Cn1cnc2c(N)ncnc21)NC(C)(C)C(=O)OCCCCCCCC [Example 39, Dioctyl 2,2′-(((((1-(6-amino-9H-purin-9-yl)propan-2-yl)oxy)methyl)phosphoryl)bis(azanediyl))(R)-bis(2-methylpropanoate)] | > 0.1 | 0.0045 | – | 7.27
C[C@H](Cn1cnc2c(N)ncnc21)OCP(=O)(NC(C)(C)C(=O)OCC1CCCCC1)NC(C)(C)C(=O)OCC1CCCCC1 [Example 46, Bis(cyclohexylmethyl) 2,2′-(((((1-(6-amino-9H-purin-9-yl)propan-2-yl)oxy)methyl)phosphoryl)bis(azanediyl))(R)-bis(2-methylpropanoate)] | > 0.1 | 0.00251 | < 1 | 4.16
C[C@H](Cn1cnc2c(N)ncnc21)OCP(=O)(NC(C)(C)C(=O)OCC12CCC(CC1)CC2)NC(C)(C)C(=O)OCC12CCC(CC1)CC2 [Example 48, Bis(bicyclo[2.2.2]octan-1-ylmethyl) 2,2′-(((((1-(6-amino-9H-purin-9-yl)propan-2-yl)oxy)methyl)phosphoryl)bis(azanediyl))(R)-bis(2-methylpropanoate)] | > 0.1 | 0.00463 | < 1 | 3.34
CCC1(CC)CC(OC(=O)C(C)(C)NP(=O)(CO[C@H](C)Cn2cnc3c(N)ncnc32)NC(C)(C)C(=O)OC2CC(CC)(CC)C2)C1 [Example 49, Bis(3,3-diethylcyclobutyl) 2,2′-(((((1-(6-amino-9H-purin-9-yl)propan-2-yl)oxy)methyl)phosphoryl)bis(azanediyl))(R)-bis(2-methylpropanoate)] | > 0.1 | 0.00545 | 4 (≈ 5.9 µM) | 5.21
C[C@H](Cn1cnc2c(N)ncnc21)OCP(=O)(NC(C)(C)C(=O)OCC1CC2(CCC2)C1)NC(C)(C)C(=O)OCC1CC2(CCC2)C1 (stereo partly drawn) [Example 50, Bis(spiro[3.3]heptan-2-ylmethyl) 2,2′-(((((1-(6-amino-9H-purin-9-yl)propan-2-yl)oxy)methyl)phosphoryl)bis(azanediyl))(R)-bis(2-methylpropanoate)] | > 0.1 | 0.0031 | < 1 | 8.06
C[C@H](Cn1cnc2c(N)ncnc21)OCP(=O)(NC(C)(C)C(=O)O[C@H]1C[C@@H](C(C)(C)C)C1)NC(C)(C)C(=O)O[C@H]1C[C@@H](C(C)(C)C)C1 [Example 51, Bis((1S,3S)-3-(tert-butyl)cyclobutyl) 2,2′-((((((R)-1-(6-amino-9H-purin-9-yl)propan-2-yl)oxy)methyl)phosphoryl)bis(azanediyl))bis(2-methylpropanoate)] | > 0.1 | 0.006 | 6 (≈ 8.85 µM) | 7.25
C[C@H](Cn1cnc2c(N)ncnc21)OCP(=O)(NC(C)(C)C(=O)OCC1CCCCCC1)NC(C)(C)C(=O)OCC1CCCCCC1 [Example 89, Bis(cycloheptylmethyl) 2,2′-(((((1-(6-amino-9H-purin-9-yl)propan-2-yl)oxy)methyl)phosphoryl)bis(azanediyl))(R)-bis(2-methylpropanoate)] | > 0.1 | 0.00242 | – | 5.1
C[C@H](Cn1cnc2c(N)ncnc21)OCP(=O)(NC(C)(C)C(=O)OC[C@H]1CC[C@H](C)CC1)NC(C)(C)C(=O)OC[C@H]1CC[C@H](C)CC1 [Example 91, Bis((trans-4-methylcyclohexyl)methyl) 2,2′-((((((R)-1-(6-amino-9H-purin-9-yl)propan-2-yl)oxy)methyl)phosphoryl)bis(azanediyl))bis(2-methylpropanoate)] | > 0.1 | 0.00376 | – | 4.92
